Like-named read-outs stand apart in the source and are kept apart here.

One data set has as its system MCF10A. Briefly: SRB antiproliferative/antigrowth assay, non-cancer cells. Particulars: SRB, 48 h post-treatment, non-cancer breast epithelial cells, read-out: GI50 MCF10A. It counts as cell-based, human. As for the experimental part:
(§1) The antigrowth effects of 4-piperazinylquinoline sulfonyl analogs on human breast tumor cells was initially evaluated using MDA-MB468 (a PTEN defective, EGFR positive breast adenocarcioma), MDA-MB231 (p53 and pRB mutated, triple-negative breast carcinoma), and MCF7 (p53+/−, invasive ductal breast carcinoma) cell lines. In addition, the cytotoxicity of all the compounds was also evaluated with the 184B5 and MCF10A non-cancer immortalized breast epithelial cell lines, to determine if these newly synthesized compounds have differential cytotoxic effects on cancer and non-cancer cells. The panel of three breast cancer cell lines with different genetic back ground and the well-studied two non-cancer immortalized breast cell lines would provide insights into the efficacy and toxicity of the test compounds in the different genetic background and at different stages of tumor development. The dose response of each cell line was established by determining the number of viable cells after 48 h of continuous drug treatment against seven different concentrations (100 µM to 0.0064 µM) of each compound. The reading of sulphorodamine B (SRB) staining is known to accurately reflect the level of total cellular macromolecules/cell growth/proliferation[6],[23]. […] The data for CQ and cisplatin were included as references. […] The differences in the GI50 values may be attributable to such factors as the nature of the sulfonyl group and the halogen substitution on the 7th position of the 4-piperazinylquinoline ring system, and the genetic and biochemical background of the cell lines.
(§2) Antiproliferative/antigrowth effects were determined by a SRB-based protocol[6],[23]. For a typical screening experiment, 5,000–10,000 cells were inoculated into 100 µL medium per well of a 96-well microtiter plate as described previously. Briefly, after the inoculation, the microtiter plate was incubated at 37 °C, 5% CO2, 95% air and 100% relative humidity for 24 h, prior to addition of experimental drugs. Some of the sample wells were fixed with 25 µL of 50% tricholoroacetic acid (TCA) as a control of the cell population for each cell line at the time of drug addition (Tz). An aliquot of the frozen stock was thawed and diluted to a desired final maximum test-concentration with complete medium. Two to ten-fold serial dilutions were made to provide a total of seven drug concentrations (and a control [C]). Following addition of drugs, the culture plate was incubated for additional 48 h. Cells were fixed in situ by slowly adding 25 µL of ice-cold 50% (w/v) TCA (final concentration, 10% TCA), and were then incubated for 60 min at 4 °C. The supernatant was discarded, and the plate was washed five times with tap water, followed by air-dry. 50 µL of SRB solution at 0.4% (w/v) in 1% acetic acid was added to each well, and the plate was incubated for >30 min at room temperature. Unbound SRB was removed by five washes with tap water, followed by air-drying. The cells “stained” with SRB were solubilized with 10 mM trizma base, and the absorbance was read on an automated plate reader at a wavelength of 515–564 nm. The relative growth rate (%) was calculated for each of the compound concentrations according to the following formula: (Ti−Tz)/(C−Tz)×100
(§3) In the formula, time zero (Tz), control growth (C), and OD for different concentration of tested compounds (Ti). The GI50 for each compound was obtained from a non-linear Sigmoidal dose-response (variable slope) curve which is fitted by GraphPad Prism v.4.03 software. Values were calculated for each of these parameters if the level of activity was reached. However, if the effect was not reached or was exceeded, the value for that parameter was expressed as greater or less than the maximum or minimum concentration tested.

A further data set relates to 184B5. The data set is described as above. It counts as cell-based, human. Particulars: SRB, 48 h post-treatment, non-cancer breast epithelial cells, read-out: GI50 184B5. As for the experimental part: as §1, §2, §3
For a further data set, the system named is MDA-MB468. The data set is described as follows: SRB antiproliferative/antigrowth assay. It counts as cell-based, human. Particulars: SRB, 48 h post-treatment, mean of triplicates of at least two experiments, read-out: GI50 MB468. The procedure:
as §1, §2, §3

For the next data set, the system named is MDA-MB231. Briefly: SRB antiproliferative/antigrowth assay. It counts as cell-based, human. Particulars: for GI50: SRB, 48 h post-treatment, mean of triplicates of at least two experiments, read-out: GI50 MB231. The procedure: as §1, §2, §3
For another data set, the system named is MCF7. The data set is described as follows: SRB antiproliferative/antigrowth assay. It is filed as cell-based, human. Particulars: for GI50: SRB, 48 h post-treatment, mean of triplicates of at least two experiments, read-out: GI50 MCF7. As for the experimental part: as §1, §2, §3

For orientation: GI50 means the concentration giving 50% growth inhibition. For the molecule “7-Chloro-4-(4-(biphenylsulfonyl)piperazin-1-yl)quinoline [Compound 9]”, the GI50 came out at 12.4 ± 0.2 µM with MCF10A; 16.4 ± 0.2 µM with 184B5; 18.2 ± 0.5 µM with MDA-MB468; 26.2 ± 0.6 µM in the data set on MDA-MB231; 9.2 ± 0.2 µM in the data set with MCF7.
For `CS(=O)(=O)N1CCN(c2ccnc3cc(Cl)ccc23)CC1` [Compound 7, 7-Chloro-4-(4-(methylsulfonyl)piperazin-1-yl)quinoline], the GI50 in the data set with MCF10A (Homo sapiens, MCF-10A, 48 h) amounted to 15.3 ± 0.1 µM; in the data set on 184B5 (Homo sapiens, 184B5, 48 h) it was 11.5 ± 0.2 µM; in the data set on MDA-MB468 (Homo sapiens, MDA-MB-468, 48 h), 35.1 ± 0.8 µM; in the data set with MDA-MB231 (Homo sapiens, MDA-MB-231, 48 h), 42.7 ± 0.8 µM; in the data set with MCF7 (Homo sapiens, MCF7, 48 h), 22.9 ± 0.6 µM.
As for `O=S(=O)(c1ccc(Cl)cc1)N1CCN(c2ccnc3cc(Cl)ccc23)CC1` [Compound 10, 7-Chloro-4-(4-(4-chlorophenylsulfonyl)piperazin-1-yl)quinoline], the GI50 in the data set with MCF10A (Homo sapiens, MCF-10A, 48 h) was found to be 8.7 ± 0.1 µM; with 184B5 (Homo sapiens, 184B5, 48 h), 12.1 ± 0.2 µM; in the data set on MDA-MB468 (Homo sapiens, MDA-MB-468, 48 h), 16 ± 0.6 µM; in the data set with MDA-MB231 (Homo sapiens, MDA-MB-231, 48 h) it was 25.5 ± 0.7 µM; in the data set with MCF7 (Homo sapiens, MCF7, 48 h), 7.6 ± 0.1 µM. The “increase in antigrowth activity on MCF7 in comparison to methyl substituted compound 7” value with MCF7 is on record as 3 fold.
As usually defined, the melting point is the temperature, or range, at which the solid turns liquid. Consider `O=S(=O)(c1ccc(Cl)cc1Cl)N1CCN(c2ccnc3cc(Cl)ccc23)CC1` [Compound 11, 7-Chloro-4-(4-(2,4-dichlorophenylsulfonyl)piperazin-1-yl)quinoline], for which the melting point fell in the range of 145 to 147 °C. In addition, the GI50 in the data set with MCF10A (Homo sapiens, MCF-10A, 48 h) came out at 8.9 ± 0.2 µM. The GI50 in the data set with 184B5 (Homo sapiens, 184B5, 48 h) came out at 12.4 ± 0.1 µM. The GI50 in the data set with MDA-MB468 (Homo sapiens, MDA-MB-468, 48 h) was determined as 21.6 ± 0.6 µM. Moreover, the GI50 in the data set with MDA-MB231 (Homo sapiens, MDA-MB-231, 48 h) stood at 40.6 ± 0.8 µM. Further, the GI50 with MCF7 (Homo sapiens, MCF7, 48 h) worked out at 13.5 ± 0.2 µM.
For `O=[N+]([O-])c1cccc(S(=O)(=O)N2CCN(c3ccnc4cc(Cl)ccc34)CC2)c1` [Compound 12, 7-Chloro-4-(4-(3-nitrophenylsulfonyl)piperazin-1-yl)quinoline], the melting point lay in the range of 138 to 140 °C. Besides, in the data set on MCF10A (Homo sapiens, MCF-10A, 48 h), the GI50 amounted to 15.5 ± 0.2 µM. In the data set on 184B5 (Homo sapiens, 184B5, 48 h), the GI50 came out at 13.3 ± 0.2 µM. The GI50 with MDA-MB468 (Homo sapiens, MDA-MB-468, 48 h) was determined as 25.1 ± 0.7 µM. The GI50 with MDA-MB231 (Homo sapiens, MDA-MB-231, 48 h) amounted to 34.7 ± 0.7 µM. The GI50 in the data set with MCF7 (Homo sapiens, MCF7, 48 h) is 14.8 ± 0.2 µM.
Consider `CS(=O)(=O)NCCCNc1ccnc2cc(Cl)ccc12` [Compound 25, N-[3-(7-Chloro-quinolin-4-ylamino)-propyl]-methanesulfonamide], for which the GI50 with MCF10A (Homo sapiens, MCF-10A, 48 h) was found to be 39.1 ± 1.2 µM; in the data set with 184B5 (Homo sapiens, 184B5, 48 h), 23.3 ± 0.9 µM; in the data set on MDA-MB468 (Homo sapiens, MDA-MB-468, 48 h) it was 28.6 ± 1 µM; with MDA-MB231 (Homo sapiens, MDA-MB-231, 48 h) it was 40.9 ± 1.5 µM; with MCF7 (Homo sapiens, MCF7, 48 h), 23.1 ± 0.9 µM.
For the molecule `O=S(=O)(NCCCNc1ccnc2cc(Cl)ccc12)c1ccc(Cl)cc1` [Compound 28, 4-Chloro-N-(3-(7-chloroquinolin-4-ylamino)propyl)benzenesulfonamide], the 50% growth inhibitory concentration (GI50) is 9.7 ± 0.1 µM in the data set on MCF10A (Homo sapiens, MCF-10A, 48 h); 6.4 ± 0.3 µM in the data set with 184B5 (Homo sapiens, 184B5, 48 h); 8.3 ± 0.7 µM with MDA-MB468 (Homo sapiens, MDA-MB-468, 48 h); 11.8 ± 0.9 µM with MDA-MB231 (Homo sapiens, MDA-MB-231, 48 h); 4.3 ± 0.3 µM in the data set on MCF7 (Homo sapiens, MCF7, 48 h). The “increase in potency on MDA-MB231 in comparison to methyl substituted compounds (25 and 34)” value with MDA-MB231 was 3.5–4.4 fold.
Regarding `O=[N+]([O-])c1cccc(S(=O)(=O)NCCCNc2ccnc3cc(Cl)ccc23)c1` [Compound 30, N-(3-(7-chloroquinolin-4-ylamino)propyl)-3-nitrobenzenesulfonamide], the GI50 with MCF10A (Homo sapiens, MCF-10A, 48 h) amounted to 31.1 ± 1.1 µM; with 184B5 (Homo sapiens, 184B5, 48 h), 15.8 ± 0.9 µM; in the data set with MDA-MB468 (Homo sapiens, MDA-MB-468, 48 h) it was 9.2 ± 0.7 µM; in the data set with MDA-MB231 (Homo sapiens, MDA-MB-231, 48 h), 20.4 ± 1.2 µM; with MCF7 (Homo sapiens, MCF7, 48 h), 8.6 ± 0.4 µM.
Regarding `COC(=O)c1sccc1S(=O)(=O)NCCCNc1ccnc2cc(Cl)ccc12` [Compound 33, 3-[3-(7-Chloro-quinolin-4-ylamino)-propylsulfamoyl]-thiophene-2-carboxylic acid methyl ester], the GI50 in the data set on MCF10A (Homo sapiens, MCF-10A, 48 h) is 16.5 µM; with MCF10A it was 16.5 ± 0.8 µM; in the data set on 184B5 (Homo sapiens, 184B5, 48 h), 15.7 µM; with 184B5, 15.7 ± 0.4 µM; with MDA-MB468 (Homo sapiens, MDA-MB-468, 48 h), 4.18 µM; with MDA-MB468, 4.1 ± 0.3 µM. For the same molecule, the 50% growth inhibitory concentration (GI50) in the data set with MDA-MB231 (Homo sapiens, MDA-MB-231, 48 h) came out at 5.97 µM; in the data set on MDA-MB231 it was 6.1 ± 0.5 µM; with MCF7 (Homo sapiens, MCF7, 48 h) it was 4.22 µM; in the data set on MCF7 it was 4.2 ± 0.2 µM. Besides, in the data set on MDA-MB231 (ratio of GI50 values), the “more effective than cisplatin (MDA-MB231)” value was 4.0 fold. Further, the “more effective than cisplatin (MCF7)” value with MCF7 (ratio of GI50 values) worked out at 6.1 fold.

The values are drawn from paper PMC6474902, “Examination of novel 4-aminoquinoline derivatives designed and synthesized by a hybrid pharmacophore approach to enhance their anticancer activities” (Scientific Reports, 2019).
